# Patent US9572807B2, “Protocols for treatment of major depressive disorder (MDD)” (NEURALSTEM, INC., priority 2014, dated 2017)
# Columns and labels:
# Assay type in all cases: in vivo, human
# [1] = test system: patients with symptomatic MDD; assay: Overall efficacy assessment in Phase 1B study
# Procedure: A double-blind, placebo-controlled, multiple-ascending-dose study employing the compound of formula (1) was performed in patients with symptomatic MDD. Twenty-four subjects were recruited, with their diagnosis and illness severity confirmed through an independent, remote SAFER interview (Targum, S. D., et al., CNS Neurosci. Ther. (2008) 14:2-9) from the Massachusetts General Hospital (MGH) Clinical Trials Network and Institute (CTNI) raters. Each patient underwent a screening for eligibility (Day −37 to Day −6 or −3) and eligible patients were admitted into the unit on Day −5 to complete their wash-out and be reconfirmed for eligibility and for baseline assessments. The patients received daily dosing of formula (1) or placebo for 28 days starting on Day 1 and were followed for safety, pharmacokinetics (PK) and pharmacodynamics (PD) until discharge. At the conclusion of in-house dosing (Day 28), patients remained in the unit for up to 3 additional days, at the psychiatrist's discretion. […]
# In this example, the results of the study of Example 1 were evaluated by the efficacy assessments that included the Montgomery-Asberg Depression Rating Scale (MADRS), the Clinician Global Impression-Improvement (CGI-I), the Symptoms of Depression Questionnaire (SDQ) and the Cognitive and Physical Functioning Questionnaire (CPFQ). […]
# [2] = test system: patients with symptomatic MDD; assay: Symptoms of Depression Questionnaire (SDQ), Phase 1B study; settings: for Cohen's d value, SDQ (ANCOVA): all test groups (n=18) vs placebo (n=6)
# Procedure: (§1) A double-blind, placebo-controlled, multiple-ascending-dose study employing the compound of formula (1) was performed in patients with symptomatic MDD. Twenty-four subjects were recruited, with their diagnosis and illness severity confirmed through an independent, remote SAFER interview (Targum, S. D., et al., CNS Neurosci. Ther. (2008) 14:2-9) from the Massachusetts General Hospital (MGH) Clinical Trials Network and Institute (CTNI) raters. Each patient underwent a screening for eligibility (Day −37 to Day −6 or −3) and eligible patients were admitted into the unit on Day −5 to complete their wash-out and be reconfirmed for eligibility and for baseline assessments. The patients received daily dosing of formula (1) or placebo for 28 days starting on Day 1 and were followed for safety, pharmacokinetics (PK) and pharmacodynamics (PD) until discharge. At the conclusion of in-house dosing (Day 28), patients remained in the unit for up to 3 additional days, at the psychiatrist's discretion. On Day 35 (±3), Day 42 (±3), Day 49 (±3) and Day 70 (±3) outpatient follow-up visits took place. Patients returned to the unit for extensive follow-up on Day 56 (±3) and Day 84 (±3) (End-of-study).
# (§2) The subjects were randomized into four groups of 6 patients each to receive 40 mg of formula (1) per dose administered orally in gelatin capsules once daily, twice daily or three times daily to provide 40 or 80 or 120 mg daily of formula (1) or placebo for 28 days. Each cohort included at least 3 female subjects. In this example, qEEG was used to characterize pharmacodynamic effects.
# (§3) In this example, the results of the study of Example 1 were evaluated by the efficacy assessments that included the Montgomery-Asberg Depression Rating Scale (MADRS), the Clinician Global Impression-Improvement (CGI-I), the Symptoms of Depression Questionnaire (SDQ) and the Cognitive and Physical Functioning Questionnaire (CPFQ). […] These improvements persisted over time during the follow-up for MADRS, SDQ and CPFQ.
# (§4) Baseline values were adjusted for initial differences and the results for the placebo group (n=6) and the tested groups (n=18) were collapsed. The sizes of the effects were estimated as Cohen's d group mean differences where d=0.20 indicates only a small difference, d=0.50 indicates a medium difference and d=0.80 indicates a large difference. Cohen's d values are described in Cohen, J. (1988) Statistical Power Analysis for the Behavioral Sciences (2nd ed.), Lawrence Erlbaum Associates. D values are used when the scale of a dependent variable is not inherently meaningful, the difference between means are considered in standardized units. That is, effect size is measured in terms of the number of standard deviations by which the means differ. Two commonly used measures are Hedges' g and Cohen's d. Both of these measures consist of the difference between means divided by the standard deviation. They differ only in that Hedges' g uses the version of the standard deviation formula in which division is by N−1, whereas Cohen's d uses the version in which division is by N.
# (§5) Covariance is a measure of how much two variables change together and how strong the relationship is between them (Lenth, R. V., The American Statistician (2001) 55:187-193). Analysis of covariance (ANCOVA) is a general linear model which blends analysis of variance (ANOVA) and regression. ANCOVA evaluates whether population means of a dependent variable (DV) are equal across levels of a categorical independent variable (IV), while statistically controlling for the effects of other continuous variables that are not of primary interest, known as covariates (CV). Therefore, when performing ANCOVA, the DV means are adjusted to what they would be if all groups were equal on the CV. In the CGI-I assay, Day 7 was used as the baseline value; in the remaining assays, Day 0 was used as baseline.
# [3] = test system: patients with symptomatic MDD; assay: Clinician Global Impression-Improvement Scale (CGI-I), Phase 1B study; settings: for Cohen's d value, CGI-I (ANCOVA): all test groups (n=18) vs placebo (n=6), Day 7 as baseline
# Procedure: as §1, §2, §3, §4, §5
# [4] = Day 14, 1x = 40 mg/day oral (n=6)
# [5] = Day 14, 2x = 80 mg/day oral (n=6)
# [6] = Day 14, 3x = 120 mg/day oral (n=6)
# [7] = Day 14, all three dose groups pooled (n=18)
# [8] = Day 56 (follow-up after 28 days dosing), 1x = 40 mg/day oral
# [9] = Day 56 (follow-up after 28 days dosing), 2x = 80 mg/day oral
# [10] = Day 56 (follow-up after 28 days dosing), 3x = 120 mg/day oral
# [11] = Day 56 (follow-up after 28 days dosing), all three dose groups pooled (n=18)
# [12] = Day 84 (follow-up after 28 days dosing), 1x = 40 mg/day oral
# [13] = Day 84 (follow-up after 28 days dosing), 2x = 80 mg/day oral
# [14] = Day 84 (follow-up after 28 days dosing), 3x = 120 mg/day oral
# [15] = Day 84 (follow-up after 28 days dosing), all three dose groups pooled
structure (smiles),measurement,setting,value
CC(C)CCNc1ncccc1C(=O)N1CCN(Cc2ccccc2)CC1 [formula (1)],Depressive and cognitive symptoms across all measures,"[1]; Day 28, two lower doses (40 mg/day and 80 mg/day)",clinically meaningful reduction in depressive and cognitive symptoms across all measures
same,"Effect on condition of patients, further analysis",[1]; highest dose (120 mg/day),effective in improving the condition of these patients
same,SDQ score,"[2]; 40 mg/day, FIG. 3, placebo (n=2) 3.1",2.5
same,SDQ score,"[2]; 80 mg/day, FIG. 3, controls (n=2) 3.5",2.7
same,SDQ score versus controls,"[2]; 120 mg/day, at 28 days, FIG. 3",slightly higher than controls
same,SDQ Means,[2]; [4],3.1174
same,SDQ Means,[2]; [5],2.8485
same,SDQ Means,[2]; [6],2.822
same,SDQ Means,[2]; [7],2.9293
same,SDQ Means,"[2]; Day 28, 1x = 40 mg/day oral (n=6)",2.5795
same,SDQ Means,"[2]; Day 28, 2x = 80 mg/day oral (n=6)",2.6856
same,SDQ Means,"[2]; Day 28, 3x = 120 mg/day oral (n=6)",2.6439
same,SDQ Means,"[2]; Day 28, all three dose groups pooled (n=18)",2.6364
same,"Cohen's d value, SDQ (ANCOVA)",[2]; Day 30,0.90
same,SDQ Means,[2]; [8],2.6023
same,SDQ Means,[2]; [9],2.3371
same,SDQ Means,[2]; [10],2.5909
same,SDQ Means,[2]; [11],2.5101
same,SDQ Means,[2]; [12],2.6364
same,SDQ Means,[2]; [13],2.4508
same,SDQ Means,[2]; [14],2.4318
same,SDQ Means,[2]; [15],2.5107
same,"Cohen's d value, SDQ (ANCOVA)",[2]; Day 85,1.10
same,SDQ Means,"[2]; Day −5 (baseline before dosing), 1x = 40 mg/day group",3.4508
same,SDQ Means,"[2]; Day −5 (baseline before dosing), 2x = 80 mg/day group",3.2652
same,SDQ Means,"[2]; Day −5 (baseline before dosing), 3x = 120 mg/day group",3.4242
same,SDQ Means,"[2]; Day −5 (baseline before dosing), all three dose groups pooled (n=18)",3.3801
same,"Cohen's d value, CGI-I (ANCOVA)",[3]; 70 days,1.13
same,CGI-I Means,"[3]; Day 7, 1x = 40 mg/day oral (n=6)",3.5
same,CGI-I Means,"[3]; Day 7, 2x = 80 mg/day oral (n=6)",3.8333
same,CGI-I Means,"[3]; Day 7, 3x = 120 mg/day oral (n=6)",3.6667
same,CGI-I Means,"[3]; Day 7, all three dose groups pooled (n=18)",3.6667
same,CGI-I Means,[3]; [4],3
same,CGI-I Means,[3]; [5],3.3333
same,CGI-I Means,[3]; [6],3.1667
same,CGI-I Means,[3]; [7],3.1667
same,CGI-I Means,"[3]; Day 21, 1x = 40 mg/day oral (n=6)",2.8333
same,CGI-I Means,"[3]; Day 21, 2x = 80 mg/day oral (n=6)",3.3333
same,CGI-I Means,"[3]; Day 21, 3x = 120 mg/day oral (n=6)",3.3333
same,CGI-I Means,"[3]; Day 21, all three dose groups pooled (n=18)",3.1667
same,CGI-I value,"[3]; Day 28, 40 mg/day, FIG. 1, placebo subset (n=2) 3.5",approximately 2.5
same,CGI-I value,"[3]; Day 28, 80 mg/day (40 mg two times daily), FIG. 1",3
same,CGI-I value versus controls,"[3]; Day 28, 120 mg/day, FIG. 1",no difference from controls
same,CGI-I Means,"[3]; Day 29, 1x = 40 mg/day oral (n=6)",2.5
same,CGI-I Means,"[3]; Day 29, 2x = 80 mg/day oral (n=6)",2.8333
same,CGI-I Means,"[3]; Day 29, 3x = 120 mg/day oral (n=6)",3.1667
same,CGI-I Means,"[3]; Day 29, all three dose groups pooled (n=18)",2.8333
same,"Cohen's d value, CGI-I (ANCOVA)",[3]; Day 30,0.57
same,CGI-I Means,"[3]; Day 35 (follow-up after 28 days dosing), 1x = 40 mg/day oral",3.8333
same,CGI-I Means,"[3]; Day 35 (follow-up after 28 days dosing), 2x = 80 mg/day oral",2.8333
same,CGI-I Means,"[3]; Day 35 (follow-up after 28 days dosing), 3x = 120 mg/day oral",3
same,CGI-I Means,"[3]; Day 35 (follow-up after 28 days dosing), all three dose groups pooled (n=18)",3.2222
same,CGI-I Means,"[3]; Day 42 (follow-up after 28 days dosing), 1x = 40 mg/day oral",3.8333
same,CGI-I Means,"[3]; Day 42 (follow-up after 28 days dosing), 2x = 80 mg/day oral",3
same,CGI-I Means,"[3]; Day 42 (follow-up after 28 days dosing), 3x = 120 mg/day oral",3
same,CGI-I Means,"[3]; Day 42 (follow-up after 28 days dosing), all three dose groups pooled (n=18)",3.2778
same,CGI-I Means,"[3]; Day 49 (follow-up after 28 days dosing), 1x = 40 mg/day oral",3.5
same,CGI-I Means,"[3]; Day 49 (follow-up after 28 days dosing), 2x = 80 mg/day oral",3.3333
same,CGI-I Means,"[3]; Day 49 (follow-up after 28 days dosing), 3x = 120 mg/day oral",2.8333
same,CGI-I Means,"[3]; Day 49 (follow-up after 28 days dosing), all three dose groups pooled (n=18)",3.2222
same,CGI-I Means,[3]; [8],3
same,CGI-I Means,[3]; [9],3
same,CGI-I Means,[3]; [10],2.1667
same,CGI-I Means,[3]; [11],2.7222
same,CGI-I Means,"[3]; Day 70 (follow-up after 28 days dosing), 1x = 40 mg/day oral",3.6667
same,CGI-I Means,"[3]; Day 70 (follow-up after 28 days dosing), 2x = 80 mg/day oral",3.5
same,CGI-I Means,"[3]; Day 70 (follow-up after 28 days dosing), 3x = 120 mg/day oral",3.3333
same,CGI-I Means,"[3]; Day 70 (follow-up after 28 days dosing), all three dose groups pooled (n=18)",3.5
same,CGI-I Means,[3]; [12],3.3333
same,CGI-I Means,[3]; [13],2.6667
same,CGI-I Means,[3]; [14],2
same,CGI-I Means,[3]; [15],2.7059
